Measurements from patent US20260159604A1, “USES OF NON-SMALL CELL LUNG CANCER TARGET ARID1A AND INHIBITOR THEREOF IN PREPARATION OF DRUG FOR TREATING LUNG CANCER” (THE FIRST AFFILIATED HOSPITAL OF BENGBU MEDICAL COLLEGE, priority 2021, published 2026).

Key:
[1] = tested on: ARID1A-deficient lung cancers; test: Intervention in glycolysis in AAV9-CMV-Cre induced KP and KPAfl/fl mouse lung cancer models; type: in vivo; settings: KPAfl/fl mice, AAV9-CMV-Cre induction
Text: In Example 4 of the present invention, the biological mechanism of ARID1A deletion promoting lung cancer progression by increasing glycolysis levels was described. In this example, one or more strategies were used to intervene in glycolysis levels, and whether the method(s) could inhibit the progression of ARID1A-deficient lung cancers was observed. In one embodiment, the present invention used a clinical drug 2-DG to inhibit glucose metabolism levels, including glycolysis levels of tumor cells. In another embodiment, the present invention used lentivirus-mediated CRISPR/Cas9 to interfere with the expression of Pgam1 gene (pSECC-sgPgaml group), wherein the nucleotide sequences of the sgRNA were as shown in SEQ ID NO: 4 and SEQ ID NO: 5. In another embodiment, the present invention used lentivirus-mediated CRISPR/Cas9 to interfere with the expression of Pkm gene (pSECC-sgPkm group), wherein the nucleotide sequences of the […] were as shown in SEQ ID NO: 6 and SEQ ID NO: 7.
Firstly, 4-week-old KP and KPAfl/fl mouse systems were established. Secondly, AAV9-CMV-Cre virus induction was performed on mice. At the same time, lentivirus-mediated Cas9 and sgRNA were administered respectively to target a key gene Pgam1 or Pkm in glycolysis for intervention, with 2-DG drug treatment as another experimental group. […]

[2] = tested on: KP and KPAfl/fl tumor-derived organoids; test: Drug sensitivity of BET inhibitors on tumor-derived organoids; type: cell-based, mouse; settings: for number of organoids with increasing drug concentration: different drug concentrations
Method: Firstly, lung tumor cells of KP and KPAfl/fl mice were taken for in vitro organoid culture and expansion, and drug sensitivity experiments of five widely used BET inhibitors were conducted on tumor-derived organoids (as shown in FIG. 7 panel A).

[3] = tested on: ARID1A-mutant ovarian cancers; settings: reported studies; cited from earlier work
[4] = tested on: ARID1A-deficient lung cancer cells; test: Sensitivity to BETi small molecules in transgenic model mice (KP and KPAfl/fl groups); type: in vivo, mouse
Method: Finally, the sensitivity of BETi small molecules to ARID1A-deficient cells was tested on transgenic model mice (KP and KPAfl/fl groups) (FIG. 7 panel D).

[5] = tested on: tumors with ARID1A knockout; test: KP and KPAfl/fl tumor organoids xenotransplanted subcutaneously into C57 mice; type: in vivo, mouse; settings: subcutaneous organoid xenotransplant in C57 mice, volumes measured every 3 days
Method: During the experiment, tumor volumes were measured every 3 days.

## O=CC[C@@H](O)[C@H](O)[C@H](O)CO [2-DG, 2-deoxy-D-glucose]
[1]
  inhibition of tumor progression caused by the ARID1A deletion: could to some extent inhibit tumor progression

## COc1cc2c(cc1-c1c(C)noc1C)ncc1[nH]c(=O)n([C@H](C)c3ccccn3)c12 [Bet151]
[2]; 7th day
  number of organoids with increasing drug concentration: the number of organoids decreased with the increase of drug concentration

## CC(=O)N1c2ccc(-c3ccc(C(=O)O)cc3)cc2[C@H](Nc2ccc(Cl)cc2)C[C@@H]1C [Bet726]
[2]; 7th day
  number of organoids with increasing drug concentration: the number of organoids decreased with the increase of drug concentration

## Cc1sc2c(c1C)C(c1ccc(Cl)cc1)=N[C@@H](CC(=O)OC(C)(C)C)c1nnc(C)n1-2 [JQ1]
[3]
  inhibitory effects on ARID1A-mutant ovarian cancers: inhibitory effects on ARID1A-mutant ovarian cancers
[4]; FIG. 7 summary
  slowing of progression of ARID1A-deficient lung cancers (FIG. 7 legend): more prominent inhibitory effect
[4]; transgenic KP and KPAfl/fl mice
  sensitivity by comparing the number and area of tumors: sensitive
[5]
  sensitivity by comparing tumor volumes and weights: more sensitive
[2]
  survival ability of ARID1A-deficient versus ARID1A wild-type tumor organoids: greater damage to the survival ability of ARID1A-deficient tumor organoids than ARID1A wild-type organoids
[2]; 7th day
  number of organoids with increasing drug concentration: the number of organoids decreased with the increase of drug concentration
[2]; concentrations of 10 μm and 50 μm, 7th day
  formation of tumor-derived organoids, KPAfl/fl versus KP: selectively impaired the formation of KPAfl/fl tumor-derived organoids
[2]; summary statement, compared with other BETi
  sensitivity of ARID1A-deficient lung adenocarcinoma cells to BETi compounds: more sensitive

## Cc1sc2c(c1C)C(c1ccc(Cl)cc1)=N[C@@H](CC(=O)Nc1ccc(O)cc1)c1nnc(C)n1-2 [OTX015, Birabresib]
[2]; 7th day
  number of organoids with increasing drug concentration: the number of organoids decreased with the increase of drug concentration
